In patent publication US20240199555A1, “APPLICATIONS OF BIASED LIGANDS OF THE SEROTONIN 5-HT7 RECEPTOR FOR THE TREATMENT OF PAIN, MULTIPLE SCLEROSIS AND THE CONTROL OF THERMOREGULATION” (Centre National de la Recherche Scientifique, priority 2021, published 2024):
pIC50, pKi: −log10 of the molar value.

Columns and labels:
[1] = tested on: neuronal culture endogenously expressing 5-HT7R; experiment: pERK immunocytochemistry in mixed neuronal cultures; type: cell-based, mice; details: 10 μM; 7, 15, 30 min
Description: FIG. 4: Serodolin stimulation induces ERK phosphorylation in neuronal culture. […] These images are representative of two independent experiments. (B) pERK fluorescence intensity (AU) from immunofluorescence staining. Results represent mean±SEM of values obtained in two independent experiments (150-200 cells counted per group). ****P<0.0001 ***P<0.001 **P<0.01 *P<0.05. Statistical analysis was done using Tukey's multiple comparison test. Cerebral cortex from embryos (E15) mice were collected and mechanically dissociated in 1 mL of HBSS (-Ca^2+) (Sigma) with HEPES (H3375, Sigma). […] Neuronal differentiation was performed in 24-well plates, during 7 days with 3 medium changes per week. Stimulated neuronal culture were fixed with 4% paraformaldehyde in PBS during 10 min and then washed with PBS. Cells were saturated with 0.3% Triton X-100 in 1% BSA in TBS-FCS 10% for 1 hr, followed by three washes in TBS and incubated overnight with rabbit anti-pERK (9101 1/200, Cell Signaling) and mouse anti-MAP2 (119942 1/250, Sigma), anti-GFAP (G61711/250, Sigma) in TBS with 1% BSA, 10% FCS and 0.3% Triton X-100. […] Images were processed with the Zen software analyzed with Image J.

[2] = target: human 5-HT2Cedited receptor (Homo sapiens, UniProt P28335); experiment: Radioligand binding competition, 5-HT2Cedited; details: selectivity panel
Experimental: FIG. 14: Testing of 8 molecules for radioligand binding competition activity on recombinant human 5-HT1A, 5-HT2A, 5-HT2Cedited, 5-HT6, 5-HT7 and D2(long) receptors using filtration binding assays.
Radioligand Binding experiments were conducted with Epics Therapeutics membrane preparations. Receptor accession numbers, cellular background and reference compounds are shown in this table.
The new compounds have been tested by radioligand binding competition activity at the human 5-HT1A (FAST-0500B), 5-HT2A (FAST-0505B), 5-HT2Cedited (FAST-0507B), 5-HT6 (FAST-0509B), 5-HT7a (FAST-05111B) and D2(long) (FAST-0101B) receptors at seven (7) concentrations, in duplicate. […] Reference values thus obtained for the test were compared to historical values obtained from the same receptor and used to validate the experimental session. For replicate determinations, the maximum variability tolerated in the test was of +/−20% around the average of the replicates.
Dose-response data from test compounds were analyzed with XLfit (IDBS) software using nonlinear regression applied to a sigmoidal dose-response model and the following equation: • XL Fit fit Model 203: 4 Parameter Logistic Model • A: Bottom • B: TOP • C: LogEC50 • D: Hill

5-HT7(b) receptors = 5-HT7(b) receptors (Homo sapiens, UniProt P34969); experiment: BRET between 5-HT7-RLuc and Venus-mini G proteins (G protein recruitment); type: cell-based
Experimental: For −mGi, mG12 and mGq cells were also transfected with a receptor described as positively coupled to the G protein: Cells expressing the Adenosine 2 receptor A2R, the Histamine3 receptor H3R or the Ghrelin receptor GHSR were stimulated with adenosine, imetit or ghrelin respectively. Ligand mediated BRET changes are expressed as induced BRET changes which were generated by subtracting at each point the signal obtained on cells incubated with PBS (without ligand).
To evaluate Gαs, Gαq, Gαi recruitment, cells were transiently transfected with 5-HT7R(b) C—terminally fused with donor Rluc (5-HT7R-Rluc) and acceptor NESVenus. mGs, or NES-Venus-mGsq or NES-Venus-mGsi (kindly provided by Pr. N. A. Lambert, Augusta University, Augusta, USA) (Ayoub, M. A., Landomiel, F., Gallay, N., Jegot, G., Poupon, A., Crepieux, P., and Reiter, E. (2015) Assessing Gonadotropin Receptor Function by Resonance Energy Transfer-Based Assays. Front Endocrinol (Lausanne) 6, 130; Wan, Q., Okashah, N., Inoue, A., Nehme, R., Carpenter, B., Tate, C. G., and Lambert, N. A. (2018) Mini G protein probes for active G protein-coupled receptors (GPCRs) in live cells. […] Data were plotted and analysed using GraphPad Prism 4 software for Windows (GraphPad Software Inc, San Diego, CA, USA). […]

mice = experiment: Tail immersion test (50° C.); type: in vivo
Experimental: (A) Experimental protocol summary used. (B) Mice were subcutaneously injected with two different doses of the 5-HT7 receptor agonist Serodolin, 1 mg/kg or 5 mg/kg and 10 min later their tail extremity was immersed in water heated to 50 degrees. […] The effect of injections (Serodolin or E55888) was evaluated at TO, 30 min and 60 min corresponding to 10, 40 and 70 min after compound injections. […] Their tail extremity was immersed in water heated to 50 degrees at TO (E) or 30 min later (F) corresponding to 10 and 40 min after agonist injections. […] Statistical analysis was done using Tukey's multiple comparison test.
Tail immersion test. Nociception was assessed with the tail immersion test, 10 min and 40 min after E55888 (5 mg/kg) or Serodolin (5 mg/kg) tail subcutaneous injections, in the water heated to 50° C. Vehicle (20% DMSO, 5% Tween 80 diluted in PBS solution) was used as a control group. These different groups were intraperitoneally injected (+) or not (−) with the 5-HT7R antagonist SB269960 (5 mg/kg) 10 min before the ligand injection. The tail withdrawal latency (s) was measured for each animal.

human 5-HT7a receptor = human 5-HT7a receptor (Homo sapiens (Human), UniProt P34969); experiment: Radioligand binding competition, filtration binding assay, 5-HT7a; details: affinity on 5-HT7 receptor, table of new compounds
human 5-HT7a receptor, sequence (P34969 other isoform, or with tags, fused parts or gaps): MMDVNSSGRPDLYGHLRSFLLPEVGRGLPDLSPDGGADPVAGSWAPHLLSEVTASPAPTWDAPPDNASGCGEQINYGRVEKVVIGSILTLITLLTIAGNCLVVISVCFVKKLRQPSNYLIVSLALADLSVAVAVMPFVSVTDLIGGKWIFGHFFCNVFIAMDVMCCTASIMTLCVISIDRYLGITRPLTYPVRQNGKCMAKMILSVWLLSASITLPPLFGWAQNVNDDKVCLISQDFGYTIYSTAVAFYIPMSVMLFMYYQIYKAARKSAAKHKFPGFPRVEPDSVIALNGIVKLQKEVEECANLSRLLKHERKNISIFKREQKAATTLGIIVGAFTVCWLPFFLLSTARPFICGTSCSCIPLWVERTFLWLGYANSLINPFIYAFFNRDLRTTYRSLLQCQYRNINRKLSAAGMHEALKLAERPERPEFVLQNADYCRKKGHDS

5-HT7(b) receptors, sequence (P34969 whole entry, looked up): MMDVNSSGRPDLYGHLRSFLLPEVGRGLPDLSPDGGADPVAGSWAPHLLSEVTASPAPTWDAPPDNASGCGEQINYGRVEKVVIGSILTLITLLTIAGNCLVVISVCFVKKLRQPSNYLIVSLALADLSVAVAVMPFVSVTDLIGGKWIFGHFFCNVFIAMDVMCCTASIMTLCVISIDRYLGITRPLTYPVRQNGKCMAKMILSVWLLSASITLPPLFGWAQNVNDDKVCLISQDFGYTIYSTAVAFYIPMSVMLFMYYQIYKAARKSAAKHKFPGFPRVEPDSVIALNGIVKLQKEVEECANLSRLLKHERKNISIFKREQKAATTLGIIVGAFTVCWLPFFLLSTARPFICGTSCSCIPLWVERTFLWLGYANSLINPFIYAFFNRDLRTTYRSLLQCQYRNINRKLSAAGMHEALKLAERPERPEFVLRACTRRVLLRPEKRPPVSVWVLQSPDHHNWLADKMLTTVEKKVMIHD
human 5-HT2Cedited receptor, sequence (P28335 33-458 limits assumed): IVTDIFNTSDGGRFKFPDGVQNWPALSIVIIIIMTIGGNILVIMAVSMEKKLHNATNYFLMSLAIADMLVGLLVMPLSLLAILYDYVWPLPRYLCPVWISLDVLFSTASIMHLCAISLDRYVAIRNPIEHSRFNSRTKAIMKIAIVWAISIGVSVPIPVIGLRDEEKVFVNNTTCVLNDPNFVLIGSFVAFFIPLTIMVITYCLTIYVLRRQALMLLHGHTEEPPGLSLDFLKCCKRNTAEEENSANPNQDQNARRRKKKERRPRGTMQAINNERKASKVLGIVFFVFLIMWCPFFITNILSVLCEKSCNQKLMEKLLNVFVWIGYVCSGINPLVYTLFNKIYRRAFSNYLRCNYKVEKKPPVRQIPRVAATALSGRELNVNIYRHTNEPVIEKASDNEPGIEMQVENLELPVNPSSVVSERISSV

With `O=c1[nH]c2ccccc2n1CN1CCN(c2ccc(F)cc2)CC1` [Serodolin] the “ERK phosphorylation in neuronal culture” value [1] was “ERK phosphorylation also occurs in neuronal culture”, the pIC50 ([2]; read-out: RLB 5-HT2Cedited IC50) was 5.96 and the pKi ([2]; read-out: RLB 5-HT2Cedited Ki) was 6.74. For the same compound, the “Gαs recruitment” value (5-HT7(b) receptors; mGs BRET) was “behaved as inverse for Gαs recruitment”, the “Gαi, Ga12 or Gαq recruitment” value (5-HT7(b) receptors; mGsi, mG12, mGsq BRET) was “neither classical (5-CT, SB 269970) nor biased 5-HT7R ligands (Serodolin) were able to induce the Gαi, Ga12 or Gαq recruitment” and the duration of effect (mice; 5 mg/kg) was greater than 70 min. The tail-immersion latencies (mice; 1 and 5 mg/kg, s.c.) was “significant dose-dependent increase in the tail-immersion latencies”, the “anti-nociceptive effect in 5-HT7R KO mice” value (mice; 5-HT7R KO mice, subcutaneous) was “did not exert any anti-nociceptive effect” and the “onset of effect post administration” value (mice; s.c.) was no more than 10 min. It also gave a pIC50 (human 5-HT7a receptor) of 8.94 and a pKi (human 5-HT7a receptor) of 9.10.
